Measurements from patent publication US8871802B2, “Naphthoquinones for disease therapies” (Zhoushan HaiZhongZhou Xinsheng Pharmaceuticals Co., Ltd., priority 2010, dated 2014).

What was measured:
Assay type in all cases: cell-based
MES-SA = experiment: MTT cell viability, MES-SA (leiomyosarcoma); settings: Homo sapiens, 48 hour incubation, read-out: Drug concentrations for 50% cell viability (IC50)
Procedure: (§1) In vitro anticancer activity of the compound of Formula I was performed using popular MTT method (Archives of Biochemistry and Biophysics, 1993, 303, […]) against lung cancer, colorectal cancer, cervical cancer, osteosarcoma, leiomyosarcoma, malignant melanoma, pancreas cancer, prostate cancer, nasopharyngeal cancer, glioma, esophageal cancer, stomach cancer, and liver cancer.
(§2) Cell Culture: A549, DLD1, SW480, LOVO, HT-29, Hela, U-20S, MES-SA, SK-MEL-28, Panc-1, DU-145, CNE, U251, Eca-109, MGC80-3, QGY-7701, BEL-7404, PLC/PRF/5, Huh-7, and SGC-7901 cells were maintained in Dulbecco's Modified Eagle Medium (DMEM) (imported from Invitrogen, Carlsbad, Calif., USA) supplemented with 10% fetal bovine serum (FBS) (Si Ji Qing, Hangzhou, China) and 1% penicillin/streptomycin/amphotercin B (imported from Invitrogen, Carlsbad, Calif., USA). Cell Viability Determination: Popular MTT method (Archives of Biochemistry and Biophysics. 1993, 303, 474-482) was used to screen the in vitro effects of the invented drugs. Briefly, 5000 to 10000 cells were inoculated per well in a 96-well plate. After overnight incubation, drug was added to the wells at final concentration of 10 μM, 5 μM, 2.5 μM, 1.25 μM, or 1 μM, 0.75 μM, 0.5 μM and 0.25 μM in complete culture medium. […] The absorbance of each well at 570 nm wavelength was measured by a micro-plate reader after gentle shaking for 20 minutes. […]

Huh-7 = experiment: MTT cell viability, Huh-7 (liver cancer); settings: Homo sapiens, 48 hour incubation, read-out: Drug concentrations for 50% cell viability (IC50)
Procedure: as §1, §2

BEL-7404 = experiment: MTT cell viability, BEL-7404 (liver cancer); settings: Homo sapiens, 48 hour incubation, read-out: Drug concentrations for 50% cell viability (IC50)
Procedure: as §1, §2

Eca-109 = experiment: MTT cell viability, Eca-109 (esophageal cancer); settings: Homo sapiens, 48 hour incubation, read-out: Drug concentrations for 50% cell viability (IC50)
Procedure: as §1, §2

HT-29 = experiment: MTT cell viability, HT-29 (colorectal cancer); settings: Homo sapiens, 48 hour incubation, read-out: Drug concentrations for 50% cell viability (IC50)
Procedure: as §1, §2

SK-MEL-28 = experiment: MTT cell viability, SK-MEL-28 (malignant melanoma); settings: Homo sapiens, 48 hour incubation, read-out: Drug concentrations for 50% cell viability (IC50)
Procedure: as §1, §2

QGY-7701 = experiment: MTT cell viability, QGY-7701 (liver cancer); settings: QGY7701, 48 hour incubation, read-out: Drug concentrations for 50% cell viability (IC50)
Procedure: as §1, §2

U-20S = experiment: MTT cell viability, U-20S (osteosarcoma); settings: 48 hour incubation, read-out: Drug concentrations for 50% cell viability (IC50)
Procedure: as §1
(§3) Cell Culture: A549, DLD1, SW480, LOVO, HT-29, Hela, U-20S, MES-SA, SK-MEL-28, Panc-1, DU-145, CNE, U251, Eca-109, MGC80-3, QGY-7701, BEL-7404, PLC/PRF/5, Huh-7, and SGC-7901 cells were maintained in Dulbecco's Modified Eagle Medium (DMEM) (imported from Invitrogen, Carlsbad, Calif., USA) supplemented with 10% fetal bovine serum (FBS) (Si Ji Qing, Hangzhou, China) and 1% penicillin/streptomycin/amphotercin B (imported from Invitrogen, Carlsbad, Calif., USA). Cell Viability Determination: Popular MTT method (Archives of Biochemistry and Biophysics. 1993, 303, 474-482) was used to screen the in vitro effects of the invented drugs. Briefly, 5000 to 10000 cells were inoculated per well in a 96-well plate. After overnight incubation, drug was added to the wells at final concentration of 10 μM, 5 μM, 2.5 μM, 1.25 μM, or 1 μM, 0.75 μM, 0.5 μM and 0.25 μM in complete culture medium. Each dose level covered 4 equivalent wells. After 48 hour incubation, one tenth volume of 5 mg/mL MTT (thiazolyl blue tetrazolium bromide, Sigma-Aldrich) stock solution was added, and incubation continued for 2 hours. Then medium was removed and 100 μL of isopropanol solution comprising 86% isopropanol, 4% aqueous 1N HCl and 10% aqueous solution of 10% SDS was added. The absorbance of each well at 570 nm wavelength was measured by a micro-plate reader after gentle shaking for 20 minutes. Drug concentrations of 50% cell viability (IC50) were calculated by LOGIT method.

DU-145 = experiment: MTT cell viability, DU-145 (prostate cancer); settings: Homo sapiens, 48 hour incubation, read-out: Drug concentrations for 50% cell viability (IC50)
Procedure: as §1, §3

A549 = experiment: MTT cell viability, A549 (lung cancer); settings: Homo sapiens, 48 hour incubation, read-out: Drug concentrations for 50% cell viability (IC50)
Procedure: as §1, §3

Hela = experiment: MTT cell viability, Hela (cervical cancer); settings: Homo sapiens, 48 hour incubation, read-out: Drug concentrations for 50% cell viability (IC50)
Procedure: as §1, §2

Panc-1 = experiment: MTT cell viability, Panc-1 (pancreatic cancer); settings: Homo sapiens, 48 hour incubation, read-out: Drug concentrations for 50% cell viability (IC50)
Procedure: as §1, §2

SGC-7901 = experiment: MTT cell viability, SGC-7901 (stomach cancer); settings: Homo sapiens, 48 hour incubation, read-out: Drug concentrations for 50% cell viability (IC50)
Procedure: as §1, §2

LOVO = experiment: MTT cell viability, LOVO (colorectal cancer); settings: Homo sapiens, 48 hour incubation, read-out: Drug concentrations for 50% cell viability (IC50)
Procedure: as §1, §2

CNE = experiment: MTT cell viability, CNE (nasopharyngeal cancer); settings: Homo sapiens, 48 hour incubation, read-out: Drug concentrations for 50% cell viability (IC50)
Procedure: as §1, §2

MGC80-3 = experiment: MTT cell viability, MGC80-3 (stomach cancer); settings: Homo sapiens, MGC-803, 48 hour incubation, read-out: Drug concentrations for 50% cell viability (IC50)
Procedure: as §1, §2

U251 = experiment: MTT cell viability, U251 (glioma); settings: Homo sapiens, U-251, 48 hour incubation, read-out: Drug concentrations for 50% cell viability (IC50)
Procedure: as §1, §2

PLC/PRF/5 = experiment: MTT cell viability, PLC/PRF/5 (liver cancer); settings: Homo sapiens, 48 hour incubation, read-out: Drug concentrations for 50% cell viability (IC50)
Procedure: as §1, §2

DLD1 = experiment: MTT cell viability, DLD1 (colorectal cancer); settings: Homo sapiens, DLD-1, 48 hour incubation, read-out: Drug concentrations for 50% cell viability (IC50)
Procedure: as §1, §3

SW480 = experiment: MTT cell viability, SW480 (colorectal cancer); settings: Homo sapiens, 48 hour incubation, read-out: Drug concentrations for 50% cell viability (IC50)
Procedure: as §1, §2

Row | SMILES | IC50 (MES-SA) [nM] | IC50 (Huh-7) [nM] | IC50 (BEL-7404) [nM] | IC50 (Eca-109) [nM] | IC50 (HT-29) [nM] | IC50 (SK-MEL-28) [nM] | IC50 (QGY-7701) [nM] | IC50 (U-20S) [nM] | IC50 (DU-145) [nM] | IC50 (A549) [nM] | IC50 (Hela) [nM] | IC50 (Panc-1) [nM] | IC50 (SGC-7901) [nM] | IC50 (LOVO) [nM] | IC50 (CNE) [nM] | IC50 (MGC80-3) [nM] | IC50 (U251) [nM] | IC50 (PLC/PRF/5) [nM] | IC50 (DLD1) [nM] | IC50 (SW480) [nM]
1 | CS(=O)(=O)c1cc2c(o1)C(=O)c1ccccc1C2=O [Compound I, 2-methylsulfonyl-naphtho[2,3-b]furan-4,9-dione] | 1200 | 2500 | 1110 | 3450 | 720 | 220 | 3500 | 430 | 430 | 2500 | 1200 | 1600 | 2500 | 2150 | 1360 | 1200 | 1000 | 2500 | 290 | 1170
2 | C[S+]([O-])c1cc2c(o1)C(=O)c1ccccc1C2=O (stereo not drawn) [Compound II, 2-methylsulfinyl-naphtho[2,3-b]furan-4,9-dione] | 1000 | 2500 | 1100 | 3800 | 780 | 240 | 2500 | 390 | 500 | 2500 | 1490 | 1250 | 2500 | 4570 | 1250 | 1200 | 1000 | 2000 | 280 | 1250
3 | CS(=O)(=O)c1oc2c(c1-c1ccccc1)C(=O)c1ccccc1C2=O [Compound XV, 2-methylsulfonyl-3-phenyl-naphtho[2,3-b]furan-4,9-dione] |  |  |  |  |  |  |  | 3610 | 5000 | > 10000 |  |  |  |  |  |  |  |  | 2510 | 
4 | C[S+]([O-])c1oc2c(c1-c1ccccc1)C(=O)c1ccccc1C2=O (stereo not drawn) [Compound XVI, 2-methylsulfinyl-3-phenyl-naphtho[2,3-b]furan-4,9-dione] |  |  |  |  |  |  |  | 1250 | 3200 | 6890 |  |  |  |  |  |  |  |  | 1000 | 
